Assay results: patent US11590233B2, “Porphyrin compounds and compositions useful for treating cancer” (OncoSelect Therapeutics, LLC, priority 2016, dated 2023)

Assays:
[1] = tested on: a cancer cell line; assay: TCPP uptake by a cancer cell treated with different inhibitors of endocytosis (FIG. 3); type: cell-based, human
Source text: (§1) Porphyrin tetrakis(4-carboxyphenyl)porphyrin (TCPP) uptake by a panel of human lung cancer cell lines including, HCC15, H157, and H358 were examined using flow cytometry in under varying conditions to manipulate clathrin-dependent and independent endocytosis by chemical inhibitors. […] It has been speculated that preferential porphyrin uptake by cancer cells as compared to non-cancer cells is facilitated by the increased number of LDL receptor (LDLR) on the surface of cancer cells.

[2] = tested on: human fibroblasts without functional LDLR; assay: TCPP uptake in human fibroblasts without functional LDLR; type: cell-based
[3] = tested on: HCC15; assay: TCPP uptake in cancer cells vs non-cancer cells by flow cytometry; type: cell-based, human; settings: 10 ug/ml, HCC15 vs bone marrow cells
Source text: (§2) Porphyrin tetrakis(4-carboxyphenyl)porphyrin (TCPP) uptake by a panel of human lung cancer cell lines including, HCC15, H157, and H358 were examined using flow cytometry in under varying conditions to manipulate clathrin-dependent and independent endocytosis by chemical inhibitors. Referring now to FIG. 1, TCPP uptake in cancer cells (HCC15) as compared to bone marrow cells in a dose dependent manner is illustrated. Similar results are observed with mouse normal lung cells as is shown for bone marrow cells. The uptake of TCPP by HCC15 is greater than 2-fold at 10 ug/ml as compared to the non-cancer cells. […] Chlorpromazine, an antagonist of clathrin-mediated endocytosis, inhibited TCPP uptake in a cancer cell line by up to 80% as is illustrated in FIG. 3. In contrast, the clathrin-independent endocytosis inhibitor filipin had no effect on TCPP uptake. It has been speculated that preferential porphyrin uptake by cancer cells as compared to non-cancer cells is facilitated by the increased number of LDL receptor (LDLR) on the surface of cancer cells. To examine LDLR contribution on TCPP uptake, lung cancer cells were manipulated to express no LDLR, which reduced TCPP uptake by only 20%.

[4] = tested on: HCC15, H157 and H358; assay: TCPP uptake in cancer cell lines under sucrose or cold temperature (FIG. 2); type: cell-based, human
Source text: as §1

[5] = tested on: lung cancer cells; assay: TCPP uptake in lung cancer cells manipulated to express no LDLR; type: cell-based, human; settings: lung cancer cells expressing no LDLR
Source text: as §2

For CN(C)CCCN1c2ccccc2Sc2ccc(Cl)cc21 [Chlorpromazine], which “inhibition of TCPP uptake” value ([1]; antagonist of clathrin-mediated endocytosis, a cancer cell line) is on record?
The value was “up to 80%”.

With O=C(O)c1ccc(-c2c3nc(c(-c4ccc(C(=O)O)cc4)c4ccc([nH]4)c(-c4ccc(C(=O)O)cc4)c4nc(c(-c5ccc(C(=O)O)cc5)c5ccc2[nH]5)C=C4)C=C3)cc1 [TCPP, tetrakis(4-carboxyphenyl)porphyrin] as the compound, how does the “inhibition of TCPP uptake” value [2] read?
The value was “no inhibition”.

And the “uptake of TCPP by HCC15 as compared to the non-cancer cells” value [3]?
The value was “greater than 2 fold”.

What about the “inhibition of TCPP uptake by cold temperature” value ([4]; cold temperature) of the same compound?
The value was “nearly completely inhibited”.

What about the “reduction of TCPP uptake” value [5] of the same compound?
The value was 20%.

How did the “effect on TCPP uptake” value ([1]; clathrin-independent endocytosis inhibitor) turn out when CCCCC[C@@H](O)[C@H]1C(=O)O[C@H](C)[C@@H](O)/C=C/C=C/C=C/C=C/C=C(\C)[C@@H](O)C[C@H](O)C[C@H](O)C[C@H](O)C[C@H](O)C[C@H](O)C[C@@H]1O [filipin] was run?
The value was “no effect”.

For OC[C@H]1O[C@@](CO)(O[C@H]2O[C@H](CO)[C@@H](O)[C@H](O)[C@H]2O)[C@@H](O)[C@@H]1O [sucrose], which “inhibition of TCPP uptake by sucrose” value ([4]; flow cytometry) is on record?
Its value is “moderately inhibited”.
